# Assay results taken from US10918625B2, “Use of sesquiterpene derivative” (KOOKMIN UNIVERSITY INDUSTRY ACADEMY COOPERATION FOUNDATION, priority 2016, dated 2021).
# Columns and labels:
# Wnt/β-catenin pathway [1] = assay: Wnt/β-catenin pathway inhibitory activity: cytoplasmic β-catenin by western blot in Wnt3a-CM treated HEK293 cells; format: cell-based, human; conditions: Wnt3a-CM, 15 hours
# Protocol: HEK293 cells (human embryonic kidney cells) and Wnt3a-secreting L cells were obtained from the ATCC (American Type Culture Collection, USA) and were cultured in DMEM (Dulbecco's modified Eagle's medium) supplemented with 10% FBS (fetal bovine serum), 120 μg/mL penicillin and 200 μg/mL streptomycin.
# Wnt3a-CM (Wnt3a-conditioned medium) was prepared by culturing Wnt3a-secreting L cells in DMEM supplemented with 10% [v/v] FBS (fetal bovine serum) for 4 days and recovering the DMEM medium and sterilizing by filtering through a 0.22-μm filter. Then, after adding a fresh DMEM (supplemented with 10% [v/v] FBS) medium to the cells and culturing for 3 days, the medium was recovered by the same method and then combined with the previously prepared Wnt3a-CM.
# (§1) After treating HEK293 cells with the Wnt3a-CM, the compound of Preparation Example 30 or the compound of Preparation Example 31 (10, 20 or 40 μM) for 15 hours and extracting cytoplasmic proteins from the cells, the amount of β-catenin regulating the CRT (β-catenin response transcription) of the Wnt/β-catenin pathway in the cells was investigated by western blot using a β-catenin antibody (BD Transduction Laboratories, USA) and the ECL system (Santa Cruz Biotechnology).
# as §1, with “The Wnt/β-catenin pathway inhibitory activity of the Preparation Example 32 compound was evaluated in the same manner as in Example <1-1>. Briefly, after” for “After”, “Wnt3a-CM” for “Wnt3a-CM, the compound of Preparation Example 30”, “32 (10 or” for “31 (10,”, “20” for “20 or 40”
# Wnt/β-catenin pathway [2] = assay: Wnt/β-catenin pathway inhibitory activity: cytoplasmic β-catenin by western blot in Wnt3a-CM treated ARPE-19 cells; format: cell-based; conditions: ARPE-19 human retinal epithelial cells, Wnt3a-CM, compound 3 or 6 μM, 24 hours
# Protocol: ARPE-19 cells (human retinal epithelial cells) and Wnt3a-secreting L cells were obtained from the ATCC (American Type Culture Collection, USA) and were cultured in DMEM (Dulbecco's modified Eagle's medium) supplemented with 10% FBS, 120 μg/mL penicillin and 200 μg/mL streptomycin. Wnt3a-CM (Wnt3a-conditioned medium) was prepared by culturing Wnt3a-secreting L cells in DMEM supplemented with 10% [v/v] FBS (fetal bovine serum) for 4 days and recovering the DMEM medium and sterilizing by filtering through a 0.22-μm filter. Then, after adding fresh DMEM (supplemented with 10% [v/v] FBS) to the cells and culturing for 3 days, Wnt3a-CM was recovered.
# as §1, with “ARPE-19” for “HEK293”, “33” for “30”, “34 (3” for “31 (10, 20”, “6” for “40”, “24” for “15”
# [3] = In vivo PK after oral administration: concentration in blood plasma and eye (LC-MS/MS); parameters: species or system ICR mouse; conditions: 10 mg/kg oral gavage, plasma and eye at 0.5 hour and 2 hours
# Protocol: Male ICR mice (8 weeks, 30-35 g) were purchased from Samtako Co. (Osan, Korea). The test animals were acclimatized for a week under the following conditions: temperature 23±2° C., relative humidity 55±10%, illumination intensity 150-300 lux, ventilation frequency 15-20 times/h, illumination cycle 12 h (07:00-19:00). All the animal experiments were approved by the Animal Care and Use Committee of Kyungpook National University (Study No. 2016-0043).
# The mice were fasted for 12 hours before drug administration. Feed and water were supplied ad libitum. The compound of Preparation Example 33 was dissolved in DW:PEG 400 (=60:40 (v/v)) and administered by oral gavage at a dose of 10 mg/kg.
# 0.5 hour and 2 hours after the oral administration, blood samples were taken from the abdominal artery. […] of a plasma sample obtained after centrifuging the blood sample at 13,000 rpm for 5 minutes was stored at −80° C. until use for analysis. […]
# In order to investigate the distribution of the compound of the present disclosure in the target tissue, the compound was orally administered at a dose of 10 mg/kg and the concentration of the compound in the blood plasma and eye was measured. The sampling times were determined as 0.5 hour and 2 hours based on the peak plasma concentration and the distribution phase. […]
# C57BL/6J mice = assay: Tissue toxicity, long-term (8 weeks) administration: blood GPT, BUN, liver and kidney sections; format: in vivo, C57BL/6J mouse; conditions: different doses for 8 weeks
# Protocol: A long-term toxicity test was conducted by administering the compound of Preparation Example 33 at different doses to C57BL/6J mice (10 mice per group) for 8 weeks. In order to investigate the effect on different organs (tissues) of the animals, blood was taken from the animals of the test group to which the compound of Preparation Example 33 was administered and the control group to which only PEG 400:Tween 80:ethanol (8:1:1, v:v:v) was administered 8 weeks later and the level of GPT (glutamate-pyruvate transferase) and BUN (blood urea nitrogen) in the blood was measured using Select E (Vital Scientific NV, Netherlands).
# [4] = tested on: macular edema-induced mouse model; assay: Inhibition of vascular leakage in the eye, intravitreal administration, laser-induced macular edema mouse model (FA and OCT); format: in vivo, C57BL/6 mouse; conditions: 100 ng/0.5 μL in DMSO intravitreal 24 hours after laser, read one week later, vs DMSO control group
# Protocol: Macular edema was induced in a 10-week-old C57BL/6 mouse by irradiating a laser. After anesthetizing the mouse with ketamine (70 mg/kg) and xylazine (30 mg/kg), the pupil was dilated with 1% tropicamide. Hydroxypropylmethyl cellulose was dropped onto the eye and a microscope cover glass was used as a contact lens. Then, five laser burns were made in the space between the blood vessels around the optic disc (Zeiss 1149-630, laser power 180 mW, duration 0.1 s, spot size 50 μm). In this state, the blood vessel size and permeability were investigated by fluorescein angiography (FA) and optical coherence tomography (OCT). 24 hours after the laser irradiation, 0.5 μL of DMSO (dimethyl sulfoxide) was injected to a control group and 100 ng/0.5 μL of the Preparation Example 33 compound dissolved in DMSO was injected to a test group, into the vitreous cavity of the mouse. One week later, fluorescein angiography and optical coherence tomography were conducted again.
# [5] = tested on: macular edema-induced mouse model; assay: Inhibition of vascular leakage in the retina, intraperitoneal administration, laser-induced macular edema mouse model (OCT); format: in vivo, C57BL/6 mouse; conditions: 1 mg/kg intraperitoneal every day for 7 days, OCT on day 6, vs vehicle
# Protocol: After inducing macular edema in a C57BL/6 mouse and intraperitoneally administering the compound of Preparation Example 33, vascular leakage in the retina was investigated.
# Briefly, after anesthetizing an 8-to-12-week-old C57BL/6 mouse with Zoletil (40 mg/kg) and xylazine (5 mg/kg), the pupil was dilated with 1% tropicamide. Hydroxypropylmethyl cellulose was dropped onto the eye and a microscope cover glass was used as a contact lens. Then, 3-5 laser burns were made in the space between the retinal blood vessels around the optic disc (Zeiss 1149-630, laser power 200 mW, duration 0.05 s, spot size 50 μm).
# After the laser irradiation, 10 mL/kg of distilled water as a vehicle was intraperitoneally administered to a control group (FIG. 5, A) and 1 mg/kg of the compound of Preparation Example 33 (dissolved distilled water) was intraperitoneally administered to a test group (FIG. 5, B) every day for 7 days. On day 6, 10% sodium fluorescein was intraperitoneally administered and optical coherence tomography was conducted.
structure (smiles),measurement,setting,value
"C=C1CCCC2C1(C)CCC(C)C2(C)CC1=C2OC(C)(C)N=C2C=C(OC)C1=O [Preparation Example 30, 18-methoxy-22,22-dimethyl-16-[{(5R,8S,9R,10S)-5,8,9-trimethyl-4-methylenedecahydronaphthalen-9-yl}methyl]benzo[d]-oxazol-17(2H)-one]",level of β-catenin in the cytoplasm (western blot),"Wnt/β-catenin pathway [1]; compound 10, 20 or 40 μM",decreased level of β-catenin
"C=C1CCCC2C1(C)CCC(C)C2(C)Cc1c(O)c(OC)cc2nc(C)oc12 [Preparation Example 31, 18-methoxy-22-methyl-16-[{(5S,8S,9R,10S)-5,8,9-trimethyl-4-methylenedecahydronaphthalen-9-yl}methyl]benzo[d]-oxazol-17-ol]",level of β-catenin in the cytoplasm (western blot),"Wnt/β-catenin pathway [1]; compound 10, 20 or 40 μM",decreased level of β-catenin
C=C1CCCC2C1(C)CCC(C)C2(C)CC1=C(O)C(=O)C=C(NCCc2ccccc2)C1=O (stereo not drawn) [Preparation Example 32],level of β-catenin in the cytoplasm (western blot),Wnt/β-catenin pathway [1]; compound 10 or 20 μM,decreased level of β-catenin
"C=C1CCC[C@H]2[C@](C)(CC3=C(O)C(=O)C=C(OC)C3=O)[C@@H](C)CC[C@]12C [Preparation Example 33, 3-[[(1R,2S,4aS,8aS)-1,2,4a-trimethyl-5-methylidene-3,4,6,7,8,8a-hexahydro-2H-naphthalen-1-yl]methyl]-2-hydroxy-5-methoxycyclohexa-2,5-diene-1,4-dione]",level of β-catenin in the cytoplasm (western blot),Wnt/β-catenin pathway [2],decreased level of β-catenin
same,distribution in the eye after oral administration,[3],highly targeted in the eye
same,permeability for the target tissue (eye),[3],high permeability
same,liver and kidney tissue sections under optical microscope,C57BL/6J mice,no special abnormality
same,"BUN (blood urea nitrogen) in the blood, control group vs test group",C57BL/6J mice; related with kidney toxicity,no significant difference
same,"GPT (glutamate-pyruvate transferase) in the blood, control group vs test group",C57BL/6J mice; related with liver toxicity,no significant difference
same,vascular leakage (fluorescein angiography and optical coherence tomography),[4],distinctly decreased vascular leakage
same,vascular leakage (optical coherence tomography),[5],inhibited vascular leakage
"C=C1CCC[C@@H]2[C@@](C)(CC3=C(O)C(=O)C=C(OCC)C3=O)[C@H](C)CC[C@@]12C [Preparation Example 34, 3-[[(1S,2R,4aR,8aR)-1,2,4a-trimethyl-5-methylidene-3,4,6,7,8,8a-hexahydro-2H-naphthalen-1-yl]methyl]-5-ethoxy-2-hydroxycyclohexa-2,5-diene-1,4-dione]",level of β-catenin in the cytoplasm (western blot),Wnt/β-catenin pathway [2],decreased level of β-catenin
